{"source": "patent US20180280480A1", "about": "“COMPOSITIONS AND PEPTIDES HAVING DUAL GLP-1R AND GLP-2R AGONIST ACTIVITY” (priority 2014, published 2018)", "format_in_all_cases": "in vivo", "key": {"[1]": {"system": "C57BL/6J mice", "experiment": "GLP1R-GLP2R dual agonist compound study: cumulative food intake", "source_text": "Forty (40, n=10, 4 groups) male C57BL/6J mice obtained from Taconic, Denmark, were used. At the time of the experiment, the mice had reached an age of 9-10 weeks. The mice were acclimatized for one week in their new environment and offered regular chow diet (Altromin 1324, Brogaarden A/S, Denmark) and domestic quality tap water. Animals were housed two per cage during the study, in a light-, temperature-, and humidity-controlled room (12-hour light: 12-hour dark cycle, lights on/off at 4 AM/4 PM hour; 22±1° C.; 50±10% relative humidity). […] Animals were uniquely identified with implantable microchips (Pet ID Microchip, E-vet) in all mice upon arrival. Animals were identified using the WS-2 weight station (MBrose ApS, Faaborg, Denmark) connected to a laptop running the HM02Lab software (Ellegaard Systems, Faaborg, Denmark). The HM02Lab software matches the body weight with ID and calculates the dose directly based on the body weight. All mice were handled for 3 days prior to the experiment to acclimatize the animals to handling and injections."}, "[2]": {"system": "C57BL/6J mice", "experiment": "GLP1R-GLP2R dual agonist compound study: oral glucose tolerance test", "description": "On day 7, an oral glucose tolerance test (OGTT) was performed. Animals were mildly fasted as all food was removed 4 hours prior to the oral glucose load. Vehicle (SC) and compounds were administered subcutaneously (SC) 2 hours prior to the OGTT. At t=0 mice received an oral glucose load (2 g/kg; 4 ml/kg; 500 mg/ml, Fresenius Kabi, Sweden). Glucose was given as gavage via a gastrically-placed tube connected to a syringe ensuring accurate dosing. Blood glucose was measured from tail vein blood before glucose (at t=−120 and 0 min, baseline) and after glucose administration at t=15, 30, 60 and 120 min. Blood samples (tail vein) was collected into 10 μl heparinized glass capillary tubes and immediately suspended in buffer (0.5 ml of glucose/lactate system solution (EKF-diagnostics, Germany) and analyzed for glucose on the test day using a BIOSEN c-Line glucose meter (EKF-diagnostics, Germany) according to manufacturer's instructions. Results from the OGTT are listed below in Table 11."}, "[3]": {"system": "diabetic db/db (BKS.Cg-m+/+Leprdb/J) male mice", "experiment": "Fed blood glucose and HbA1c in diabetic db/db mice", "settings": "for Blood glucose, fed state / HbA1c: Day 56, mean ± S.E.M.", "description": "(§1) A total of forty-six (46) diabetic db/db (BKS.Cg-m+/+Leprdb/J) male mice, 5 weeks old at arrival, was obtained from Janvier (France). The mice were acclimatized for two weeks in their new environment with free access to normal chow (Altromin 1324, Brogaarden A/S, Gentofte, Denmark) and domestic quality tap water. They were housed in groups of n=2 in a light-, temperature-, and humidity-controlled room (12-hour light: 12-hour dark cycle, lights On/Off at 04.00/16.00 h; 22±1° C.; 50±10% relative humidity). During the habituation period animals was accustomed to the experimental paradigm.\n(§2) Baseline, free fed blood glucose samples were obtained bi-weekly prior to study start (blood was collected from the tail vein) in order to screen for the diabetic state. The 40 animals closest to the mean BG/BW value at day −3 were randomized into 4 groups (n=10/group; the remaining 6 animals was be discarded from the main study): Group 1: Vehicle, BID, SC. Group 2: SEQ ID NO 6, 50 nmol/kg, BID, SC. Group 3: SEQ ID NO 6, 250 nmol/kg, BID, SC. […] During day 0-58 of the experiment, animals received a subcutaneous dosing twice daily at 06.00-08.00 hours and again between 02.00-04.00 hours. Dose volume was 5 ml/kg.\nOn experimental day 56 an oral glucose tolerance test was performed. Animals were mildly fasted as food was removed 4 hours prior to administration of the glucose bolus. Compounds were administered 45 minutes prior to the OGTT. At t=0, mice received an oral glucose load of 2 g/kg glucose (Glucose 200 mg/ml, Fresenius Kabi, Sweden). Glucose was given as gavage via a gastrically placed tube connected to a syringe ensuring accurate dosing. Blood samples were collected from the tail vein and blood-glucose was measured at time points −60, 0, 15, 30, 60, 120 and 240 minutes after the glucose administration. Samples for measuring HbA1c was taken in parallel with blood glucose at t=−60 minutes. Mice were re-fed after the last blood sampling."}, "[4]": {"system": "diabetic db/db (BKS.Cg-m+/+Leprdb/J) male mice", "experiment": "Intestinal volume and surface area (stereology) in diabetic db/db mice", "settings": "for Large intestine surface area / Large intestine volume / Small intestine surface area / Small intestine volume: Day 58, mean ± S.E.M.", "description": "as §1, with “The mice were acclimatized for two weeks in their new environment with free access to normal chow (Altromin 1324, Brogaarden A/S, Gentofte, Denmark) and domestic quality tap water.” left out\nas §2, with “SC.” for “SC. Group 2: SEQ ID NO 6, 50 nmol/kg, BID, SC. Group 3: SEQ ID NO 6, 250 nmol/kg, BID, SC.”\nAt the end of the study period mice were terminated by decapitation under isoflurane anaesthesia. The entire intestine was dissected out and divided into small and large which was then measured in length."}}, "note": "Marks after values point to notes of the source that are not given here.", "data": [{"substance": "R^1-HGDGSFTSELSTYLDALAARDFIAWLIQTKITDR^2 [SEQ ID NO 6]", "values": [{"measurement": "Cumulative food intake", "setting": "[1]; Day 0-7, 3.0 mg/kg BID SC, mean ± S.E.M.", "value": "21.96 ± 1.46", "unit": "g"}, {"measurement": "cumulative food intake compared to vehicle and teduglutide", "setting": "[1]; dosed twice daily for 7 days", "value": "considerably reduced cumulative food intake"}, {"measurement": "Oral glucose tolerance test AUC, 0-120 min", "setting": "[2]; Day 7, 3.0 mg/kg BID SC, glucose 2 g/kg oral, mean ± S.E.M.", "value": "523 ± 112", "unit": "mmol·min/L"}, {"measurement": "blood glucose compared to vehicle and teduglutide", "setting": "[2]; dosed twice daily for 7 days", "value": "significantly reduced fasting blood glucose"}, {"measurement": "effect on fed-state blood glucose, HbA1c and glucose tolerance", "setting": "[3]; 8 weeks of treatment, db/db mice", "value": "reduction in fed-state blood glucose, HbA1c levels as well as an improving of glucose tolerance in a dose dependent manner"}, {"measurement": "Blood glucose, fed state", "setting": "[3]; 50 nmol/kg BID SC", "value": "7.2 ± 1.0", "unit": "mmol/L"}, {"measurement": "HbA1c", "setting": "[3]; 50 nmol/kg BID SC", "value": "5.0 ± 0.2", "unit": "%"}, {"measurement": "Blood glucose, fed state", "setting": "[3]; 250 nmol/kg BID SC", "value": "5.9 ± 0.4", "unit": "mmol/L"}, {"measurement": "HbA1c", "setting": "[3]; 250 nmol/kg BID SC", "value": "4.4 ± 0.1", "unit": "%"}, {"measurement": "effect on small intestine volume and surface area", "setting": "[4]; 8 weeks of treatment, 50 and 250 nmol/kg", "value": "marked increase in small intestine volume as well as surface area"}, {"measurement": "Large intestine surface area", "setting": "[4]; 50 nmol/kg BID SC", "value": "3.6 ± 1.2", "unit": "cm^2"}, {"measurement": "Large intestine volume", "setting": "[4]; 50 nmol/kg BID SC", "value": "274.2 ± 7.0", "unit": "mm^3"}, {"measurement": "Small intestine surface area", "setting": "[4]; 50 nmol/kg BID SC", "value": "348.9 ± 10.8*** cm^2"}, {"measurement": "Small intestine volume", "setting": "[4]; 50 nmol/kg BID SC", "value": "2097 ± 72.7*** mm^3"}, {"measurement": "Large intestine surface area", "setting": "[4]; 250 nmol/kg BID SC", "value": "18.6 ± 1.9", "unit": "cm^2"}, {"measurement": "Large intestine volume", "setting": "[4]; 250 nmol/kg BID SC", "value": "288.2 ± 23.7", "unit": "mm^3"}, {"measurement": "Small intestine surface area", "setting": "[4]; 250 nmol/kg BID SC", "value": "344.0 ± 20.8*** cm^2"}, {"measurement": "Small intestine volume", "setting": "[4]; 250 nmol/kg BID SC", "value": "2043 ± 62.3*** mm^3"}]}]}
